Reference: PubChem BioAssay (NCI)
Several values for one entry are separate records, joined by “and”; a condition that tells them apart may be missing. Equal values may be shown once.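 Five concentrations, 48 hours, 96-well plates. At the GI50, growth is halved. Definition used: TGI = concentration required for complete inhibition of growth.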

Legend:
Test in all cases: inhibition of tumour cell growth, NCI panel, 48 h
RPMI-8226 leukemia = tested on: RPMI-8226 leukemia
IGROV1 ovarian = tested on: IGROV1 ovarian
MCF7 breast = tested on: MCF7 breast
UO-31 renal = tested on: UO-31 renal
U251 CNS = tested on: U251 CNS
SN12C renal = tested on: SN12C renal
TK-10 renal = tested on: TK-10 renal
HL-60(TB) leukemia = tested on: HL-60(TB) leukemia
MDA-N = tested on: MDA-N
NCI-H226 lung = tested on: NCI-H226 lung

## CCCCCCCCCCCCCCCCCCNc1ccn(C2OC(COP(=O)(O)OCC3OC(n4ccc(NC(=O)CCCCCCCCCCCCCCCCC)nc4=O)C(OC(C)=O)C3OC(C)=O)C(OC(C)=O)C2OC(C)=O)c(=O)n1 (centres undefined)
RPMI-8226 leukemia
  TGI: > 100 µM
IGROV1 ovarian
  TGI: > 100 µM
MCF7 breast
  TGI: > 100 µM
UO-31 renal
  TGI: > 100 µM
U251 CNS
  TGI: > 100 µM
SN12C renal
  TGI: > 100 µM
TK-10 renal
  TGI: > 100 µM
HL-60(TB) leukemia
  TGI: > 100 µM
MDA-N
  TGI: > 100 µM
NCI-H226 lung
  TGI: > 100 µM

## COc1ccccc1Nc1nc(N)nc(N)c1N=O
RPMI-8226 leukemia
  TGI: > 100 µM
IGROV1 ovarian
  TGI: > 100 µM
MCF7 breast
  TGI: > 100 µM
UO-31 renal
  TGI: > 100 µM
U251 CNS
  TGI: > 100 µM
SN12C renal
  TGI: > 100 µM
TK-10 renal
  TGI: > 100 µM
HL-60(TB) leukemia
  TGI: > 100 µM
MDA-N
  TGI: > 100 µM
NCI-H226 lung
  TGI: > 100 µM

## COc1cc2c(cc1OC)C1=Cc3cc(OC)c(OC)cc3C(C)N1C=C2 (centres undefined)
RPMI-8226 leukemia
  TGI: > 100 µM
IGROV1 ovarian
  TGI: > 100 µM
MCF7 breast
  TGI: > 100 µM
UO-31 renal
  TGI: > 100 µM
U251 CNS
  TGI: > 100 µM
SN12C renal
  TGI: > 100 µM
TK-10 renal
  TGI: > 100 µM
HL-60(TB) leukemia
  TGI: > 100 µM
MDA-N
  TGI: > 100 µM
NCI-H226 lung
  TGI: > 100 µM

## COc1cc(-c2cc(=O)c3cc4c(cc3[nH]2)OCO4)cc(OC)c1O
RPMI-8226 leukemia
  TGI: > 10 µM
IGROV1 ovarian
  TGI: > 10 µM
MCF7 breast
  TGI: > 10 µM
UO-31 renal
  TGI: > 10 µM
U251 CNS
  TGI: > 10 µM
SN12C renal
  TGI: > 10 µM
TK-10 renal
  TGI: > 10 µM
HL-60(TB) leukemia
  TGI: > 10 µM
MDA-N
  TGI: > 10 µM
NCI-H226 lung
  TGI: > 10 µM

## CC(=O)OCC1OC(OC(C)(C)CC/C=C(\C)[C@@H]2C/C=C(\C)CC/C=C(\C)CC2)C(O)C(O)C1OC(C)=O (some centres undefined)
RPMI-8226 leukemia
  TGI: 70.6 µM and > 100 µM
IGROV1 ovarian
  TGI: > 79.1 µM and 32 µM
MCF7 breast
  GI50: 52 µM and 23.9 µM
  TGI: > 100 µM and 64.8 µM
UO-31 renal
  GI50: 53.4 µM and 12.7 µM
  TGI: > 100 µM and 25.6 µM
U251 CNS
  GI50: 39.3 µM
  TGI: > 100 µM
SN12C renal
  TGI: > 94.1 µM and 41.2 µM
TK-10 renal
  GI50: > 100 µM and 20.6 µM
  TGI: > 100 µM and 38.3 µM
HL-60(TB) leukemia
  TGI: 67.3 µM
MDA-N
  TGI: > 61.4 µM and 41.5 µM
NCI-H226 lung
  TGI: > 100 µM and 16.2 µM

## Brc1ccc(CCNCCN2CCCCC2)cc1
RPMI-8226 leukemia
  TGI: > 100 µM
IGROV1 ovarian
  TGI: 31 µM
MCF7 breast
  TGI: 29.5 µM
UO-31 renal
  TGI: 24.6 µM
U251 CNS
  TGI: 32.4 µM
SN12C renal
  TGI: 58.5 µM
TK-10 renal
  TGI: 28.8 µM
HL-60(TB) leukemia
  TGI: > 100 µM
MDA-N
  TGI: 23.8 µM
NCI-H226 lung
  TGI: 59 µM

## COc1ccc(-c2cc(-c3ccco3)c(C#N)c(=S)n2C2OC(COC(C)=O)C(OC(C)=O)C(OC(C)=O)C2OC(C)=O)cc1 (centres undefined)
RPMI-8226 leukemia
  TGI: 22.8 µM
IGROV1 ovarian
  TGI: 29.5 µM
MCF7 breast
  TGI: > 100 µM
UO-31 renal
  TGI: 27.2 µM
U251 CNS
  TGI: 17.8 µM
SN12C renal
  TGI: 24 µM
TK-10 renal
  TGI: 45.1 µM
HL-60(TB) leukemia
  TGI: 20.7 µM
MDA-N
  TGI: 19.2 µM
NCI-H226 lung
  TGI: 16.5 µM

## CC(C)(N=NC(C)(C)C(=O)NCCO)C(=O)NCCO
RPMI-8226 leukemia
  TGI: > 100 µM
IGROV1 ovarian
  TGI: > 100 µM
MCF7 breast
  TGI: > 100 µM
UO-31 renal
  TGI: > 100 µM
U251 CNS
  TGI: > 100 µM
SN12C renal
  TGI: > 100 µM
TK-10 renal
  TGI: > 100 µM
HL-60(TB) leukemia
  TGI: > 100 µM
MDA-N
  TGI: > 100 µM
NCI-H226 lung
  TGI: > 100 µM

## NC(=O)N/N=C(\Cc1nc2ccc(Cl)cc2[nH]c1=O)C(=O)Nc1ccc(Cl)cc1Cl
RPMI-8226 leukemia
  TGI: > 100 µM
IGROV1 ovarian
  TGI: > 100 µM
MCF7 breast
  TGI: > 100 µM
UO-31 renal
  TGI: > 100 µM
U251 CNS
  TGI: > 100 µM
SN12C renal
  TGI: > 100 µM
TK-10 renal
  TGI: > 100 µM
HL-60(TB) leukemia
  TGI: > 100 µM
MDA-N
  TGI: > 100 µM
NCI-H226 lung
  TGI: > 100 µM

## Cc1nc2cccc([N+](=O)[O-])c2c(NCCCN(C)C)c1C
RPMI-8226 leukemia
  TGI: > 100 µM
IGROV1 ovarian
  TGI: > 100 µM
MCF7 breast
  TGI: 60.6 µM
UO-31 renal
  TGI: > 100 µM
U251 CNS
  TGI: > 100 µM
SN12C renal
  TGI: 16.1 µM
TK-10 renal
  TGI: > 55.1 µM
HL-60(TB) leukemia
  TGI: 17.8 µM
MDA-N
  TGI: > 100 µM
NCI-H226 lung
  TGI: > 90.4 µM

## CC(C)=CCOC(=O)C(C)=[N+]=[N-]
RPMI-8226 leukemia
  TGI: > 100 µM
IGROV1 ovarian
  TGI: > 100 µM
MCF7 breast
  TGI: > 100 µM
UO-31 renal
  TGI: > 100 µM
U251 CNS
  TGI: > 100 µM
SN12C renal
  TGI: > 100 µM
TK-10 renal
  TGI: > 100 µM
HL-60(TB) leukemia
  TGI: > 100 µM
MDA-N
  TGI: > 100 µM
NCI-H226 lung
  TGI: > 100 µM

## Nc1ccc2nc(-c3ccccn3)c(-c3ccccn3)nc2c1
RPMI-8226 leukemia
  TGI: > 100 µM
IGROV1 ovarian
  TGI: > 100 µM
MCF7 breast
  TGI: > 100 µM
UO-31 renal
  TGI: > 100 µM
U251 CNS
  TGI: > 100 µM
SN12C renal
  TGI: > 100 µM
TK-10 renal
  TGI: > 100 µM
HL-60(TB) leukemia
  TGI: > 100 µM
MDA-N
  TGI: > 100 µM
NCI-H226 lung
  TGI: > 100 µM

## O=C(O)c1cc2c(cc1CC(Cc1ccc3c(c1)CCC3)C(=O)O)CCC2 (centres undefined)
RPMI-8226 leukemia
  TGI: > 100 µM
IGROV1 ovarian
  TGI: > 100 µM
MCF7 breast
  TGI: > 100 µM
UO-31 renal
  TGI: > 100 µM
U251 CNS
  TGI: > 100 µM
SN12C renal
  TGI: > 100 µM
TK-10 renal
  TGI: > 100 µM
HL-60(TB) leukemia
  TGI: > 100 µM
MDA-N
  TGI: > 100 µM
NCI-H226 lung
  TGI: > 100 µM

## CN(CCC#N)c1ccc(/C=C2\SC(=S)NC2=O)cc1
RPMI-8226 leukemia
  TGI: > 100 µM
IGROV1 ovarian
  TGI: > 100 µM
MCF7 breast
  TGI: > 100 µM
UO-31 renal
  TGI: > 100 µM
U251 CNS
  TGI: > 100 µM
SN12C renal
  TGI: > 100 µM
TK-10 renal
  TGI: > 100 µM
HL-60(TB) leukemia
  TGI: > 100 µM
MDA-N
  TGI: > 100 µM
NCI-H226 lung
  TGI: > 100 µM

## O=C1/C(=C/c2ccccc2)N=C(c2ccccc2)N1n1c(-c2ccccc2)nc2ccccc2c1=O
RPMI-8226 leukemia
  TGI: > 100 µM
IGROV1 ovarian
  TGI: > 100 µM
MCF7 breast
  TGI: > 100 µM
UO-31 renal
  TGI: > 100 µM
U251 CNS
  TGI: > 100 µM
SN12C renal
  TGI: > 100 µM
TK-10 renal
  TGI: > 100 µM
HL-60(TB) leukemia
  TGI: > 100 µM
MDA-N
  TGI: > 100 µM
NCI-H226 lung
  TGI: > 100 µM

## OC1C2[C@@H](O)CCCN2C[C@@H](O)[C@H]1O (some centres undefined)
RPMI-8226 leukemia
  TGI: > 100 µM
IGROV1 ovarian
  TGI: > 100 µM
MCF7 breast
  TGI: > 100 µM
UO-31 renal
  TGI: > 100 µM
U251 CNS
  TGI: > 100 µM
SN12C renal
  TGI: > 100 µM
TK-10 renal
  TGI: > 100 µM
HL-60(TB) leukemia
  TGI: > 100 µM
MDA-N
  TGI: > 100 µM
NCI-H226 lung
  TGI: > 100 µM

## CN(C)CCCOC(=O)C(c1ccccc1)C1(O)CCSCC1 (centres undefined)
RPMI-8226 leukemia
  TGI: > 100 µM
IGROV1 ovarian
  TGI: > 100 µM
MCF7 breast
  TGI: > 100 µM
UO-31 renal
  TGI: > 100 µM
U251 CNS
  TGI: > 100 µM
SN12C renal
  TGI: > 100 µM
TK-10 renal
  TGI: > 100 µM
HL-60(TB) leukemia
  TGI: > 100 µM
MDA-N
  TGI: > 100 µM
NCI-H226 lung
  TGI: > 100 µM

## Nc1nc2cc3nc(N)c(N)nc3cc2nc1N
RPMI-8226 leukemia
  TGI: > 100 µM
IGROV1 ovarian
  TGI: > 100 µM
MCF7 breast
  TGI: > 100 µM
UO-31 renal
  TGI: > 100 µM
U251 CNS
  TGI: > 100 µM
SN12C renal
  TGI: > 100 µM
TK-10 renal
  TGI: > 100 µM
HL-60(TB) leukemia
  TGI: > 100 µM
MDA-N
  TGI: > 100 µM
NCI-H226 lung
  TGI: > 100 µM
